Measured values as given in PubChem BioAssay AID687000 (Broad Institute, 2013).
Where “and” joins values, the source holds several entries; their conditions need not be identical. Equal entries are not always repeated. Calls of active or inactive are those of the source.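 Rule for the calls: active = fitted dose curve reaches 40% lysis signal rise at or below the highest valid concentration tested for that sample; inconclusive = flat fit between 30% and 70%, or poor curve fit; inactive = signal falls, stays flat within 30%, or no crossing.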

System: C. neoformans lysis, adenylate kinase release luminescence, 4 h
Experiment: C. neoformans lysis by adenylate kinase leakage – AK release luminescence, cherry-picks, dose response (AID 687000)

| SMILES | AC40 |
| --- | --- |
| Cc1noc(C)c1NC(=O)Nc1ccc2c(c1)C(=O)N([C@@H](C)CO)C[C@H](C)[C@H](CN(C)CC1CCCCC1)O2 | > 15 µM (inactive) |
| O=C(C1CCOCC1)N1CC[C@@H]2[C@@H](CO)Nc3ccc(Br)cc3[C@@H]21 | > 15 µM (inactive) |
| C[C@H](CO)N1C[C@H](C)[C@@H](CN(C)C(=O)c2ccncc2)OCCCC[C@H](C)Oc2ccc(NC(=O)Cc3ccccc3)cc2C1=O | > 15 µM (inactive) |
| C[C@H](O)C#Cc1ccc2c(c1)O[C@H](CN(C)Cc1ccncc1)[C@H](C)CN([C@H](C)CO)S2(=O)=O | > 15 µM (inactive) |
| Cc1ccc(C(=O)NC(=S)Nc2ccc(N3CCOCC3)cc2)cc1 | 11.9 µM |
| O=C(NCCc1ccccc1)[C@@H]1[C@@H](CO)[C@@H]2Cn3c(cccc3=O)[C@H]1N2C(=O)C1CCC1 | > 7.5 µM (inactive) |
| C[C@H]1CN([C@@H](C)CO)S(=O)(=O)c2ccc(Br)cc2O[C@@H]1CN(C)C(=O)CCN1CCCCC1 | > 15 µM (inactive) |
| COC(=O)C1=C(C)N(C)C(=S)NC1c1ccccc1 (stereo unspecified) | > 26 µM (inactive) |
| COC(=O)C1=C(C)N(Cc2ccc(Br)cc2)C(=S)NC1c1ccc(F)cc1 (stereo unspecified) | 4.62 µM and 7.82 µM |
| COc1cccc(-c2ccc3c(c2)[C@H]2[C@H](CCN2C(=O)Cc2ccncc2)[C@H](CO)N3C)c1 | > 15 µM (inactive) |
| Cc1ccccc1NC(=S)NC(=O)CCc1ccccc1 | 4.93 µM |
| CCNC(=O)C[C@H]1CC[C@H](NC(=O)NC2CCCCC2)[C@@H](CO)O1 | > 15 µM (inactive) |
| Cc1cccc(C)c1NC(=O)C1CCCN1C(=O)NCc1ccccc1 (stereo unspecified) | > 15 µM (inactive) |
| O=C(COC(=O)CCC1CCCC1)Nc1nc2c(F)c(F)c(F)cc2s1 | > 15 µM (inactive) |
| Fc1ccccc1NC(=S)NN(Cc1ccccc1)c1ccccc1 | 5.17 µM |
| CO[C@H]1CN(C)C(=O)c2cc(NC(=O)C3CC3)ccc2OC[C@@H](C)N(Cc2cncnc2)C[C@H]1C | 12.9 µM |
